For eight compounds, viability, T/C and IC50 results are on record in PubChem BioAssay AID1963843 (Molecular Pharmacology Branch, DTP, NCI, 2024).

By viability, T/C is commonly meant the result in the treated group divided by that in the control group, in per cent. What is called IC50 is the concentration that inhibits the measured activity by half.

Each structure is given as a SMILES string. Where “and” joins values, the source holds several entries; their conditions need not be identical. Identical values can stand only once. A value given as a limit tells only on which side of the number the result lay.

The assay relates to 616215-338-R-J1-PDC complex spheroid viability. As to the kind of experiment: Anticancer human tumor 616215-338-R-J1-PDC patient-derived colon adenocarcinoma cell line growth inhibition [POLQ]. To be noted: for viability, T/C: stronger effect = lower value. The procedure:
Multicellular complex tumor spheroid response to Polymerase (POL) inhibitors (novobiocin, ART-558, RP6685) in combination with a variety of drugs and investigational agents in selected tumor cell lines
The POL inhibitors (novobiocin, ART-558, and RP6685) were evaluated both individually and in combination with standard of care and investigational anticancer small molecules within a complex spheroid model of solid tumors. . Complex spheroids include a stromal component modeled by human endothelial cells (HUVEC) and fibroblasts modeled by human mesenchymal stem cells (MSCs). The concentration ranges selected for each drug and investigational agent were based upon clinically achievable concentrations if the clinical Cmax of the agent was known.
Compounds. The drugs and investigational agents: novobiocin (NSC847541), ART-558 (NSC835418), RP-6685 (NSC848927), peposertib (NSC802822), ceralasertib (NSC780249), elimusertib (NSC800525), camonsertib (NSC841442), AZD-1390 (NSC803789), olaparib (NSC753686), talazoparib (NSC767125), rucaparib (NSC756644), sotorasib (NSC818433), MRTX-1133 (NSC836407), SN-38 (NSC673596), topotecan (NSC609699), epotoside (NSC141540), doxorubicin (NSC123127), gemcitabine (NSC613327), 5-fluorouracil (NSC19893), paclitaxel (NSC125973), vemurafenib (NSC761431), MSA-2 (NSC828583), SN-011 (NSC837082), adavosertib (NSC754352), prexasertib (NSC758257), carboplatin (NSC241240) and oxaliplatin (NSC266046), were obtained from the National Cancer Institute (NCI) Developmental Therapeutics Program Chemical Repository (21). The FDA-approved anticancer drug set is available from the Developmental Therapeutics Program at https://dtp.cancer.gov/organization/dscb/obtaining/. […] The stock solutions were prepared in dimethyl sulfoxide (DMSO, Sigma-Aldrich, St. Louis, MO, cat. D2650), except for the platinum compounds which were prepared in saline (Quality Biological, Gaithersburg, MD, cat. 114-055-101), at 800-fold the tested concentration and stored at -70 degrees C prior to their use. All drugs and investigational agents were tested over a range starting from a high concentration at or near the clinical Cmax and decreasing in half-log increments. If the clinical Cmax for an agent had not been determined, the highest concentration tested was 10 microM, except for SN-38, which was tested at a high concentration of 1 microM.
Cell Culture. All cells were maintained in an incubator at 37 degrees C and 5% CO2 with 95% humidity. The PDC lines were cultured according to standard operating procedures established by the NCI PDMR (https://pdmr.cancer.gov). Table 3 of the manuscript, lists the cell lines along with the number of the three cell types plated to form the mct-spheroids and media for tumor cell growth. After thawing, all PDC lines, except 997537-175-T-J1-PDC and 415267-285-R-J2-PDC, were cultured in Matrigel-coated flasks prepared with a working solution of 1X Ham's F-12 nutrient mix, without supplementation (Thermo Fisher Scientific, cat. 11765054), 100 U/mL penicillin-streptomycin (Thermo Fisher Scientific, cat. 15140122), and 2.5% Matrigel (Corning Inc., Corning, NY, cat. 354248) for the first three passages. The two PDC lines 997537-175-T-J1-PDC and 415267-285-R-J2-PDC were cultured on uncoated flasks. The 857933-349-R-J2-PDC line was cultured in 6C/Colon 1B media containing advanced DMEM/F-12 (Thermo Fisher Scientific, cat. 12634028), 10 mM HEPES (Thermo Fisher Scientific, cat. 15630080), 1X GlutaMAX supplement (Thermo Fisher Scientific, cat. 35050061), 0.1 mg/mL primocin (InvivoGen, San Diego, CA, cat. ant-pm-2), 10% defined fetal bovine serum, heat inactivated (HyClone Laboratories Inc., Logan, UT, cat. SH30070.03HI), 50% L-WRN conditioned media (ATCC, cat. CRL-3276), 1.25 mM N-Acetyl-L-cysteine (Sigma-Aldrich, cat. A9165), 10 mM nicotinamide (Sigma-Aldrich, cat. N0636), 1X B-27 supplement (Thermo Fisher Scientific, cat. 17504044), 1X N-2 supplement (Thermo Fisher Scientific, cat. […]
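Further: spheroids exposed to compounds for one week before readout.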
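Wherever viability, T/C is given: percent viability relative to DMSO vehicle wells taken as 100%.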

Consider `C#Cc1c(F)ccc2cc(O)cc(-c3ncc4c(N5CC6CCC(C5)N6)nc(OCC56CCCN5CC(F)C6)nc4c3F)c12` (stereo not given), for which the viability, T/C is 101% (2×) and 104% (compound 0.0316 µM); 90.4% and 90.9% and 90.6% (compound 0.1 µM); 104% and 103% and 97.6% (compound 0.316 µM); 107% and 71.8% and 104% (compound 1 µM); 109% and 54.8% and 93.5% (compound 3.16 µM); 72.4% and 33.1% and 66.3% (compound 10 µM). The IC50 (curve of compound) is > 10 µM and 3.54 µM.

Turning to `C=CC(=O)N1CCN(c2nc(=O)n(-c3c(C)ccnc3C(C)C)c3nc(-c4c(O)cccc4F)c(F)cc23)C(C)C1` (stereo not given), the viability, T/C reads like this: (compound 0.0316 µM) 104% and 100% and 91.5%; (compound 0.1 µM) 94.8% and 103% and 100%; (compound 0.316 µM) 97.3% and 99.3% and 98.2%; (compound 1 µM) 97.3% and 97.5% and 99.1%; (compound 3.16 µM) 103% and 90.9% and 104%; (compound 10 µM) 87.7% and 66.7% and 91.4%. Besides, the IC50 (curve of compound) is more than 10 µM.

As for `CC1COCCN1c1cc(C2(O)CC3CCC(C2)O3)c2cnn(-c3ccn[nH]3)c2n1` (stereo not given), the viability, T/C (compound 0.0316 µM) is 99.2% and 95.5% and 88%; the viability, T/C (compound 0.1 µM) is 91.8% and 93% and 73.8%; the viability, T/C (compound 0.316 µM) was 73.3% and 70.1% and 46.3%; the viability, T/C (compound 1 µM) is 76.6% and 53.7% and 34.7%; the viability, T/C (compound 3.16 µM) was 54% and 46% and 21%; the viability, T/C (compound 10 µM) was 40.1% and 32.2% and 19.3%.

`CCc1cc2c(N3CCc4c(cc(Cn5ccnc5)cc4-c4cn(C)nc4C(F)(F)F)C3=O)cc(C)nc2c(OC)n1`: the viability, T/C was 111% and 112% and 115% (compound 0.0316 µM); 99.7% and 102% and 100% (compound 0.1 µM); 103% and 79.5% and 78.1% (compound 0.316 µM); 98.2% and 62.6% and 69.1% (compound 1 µM); 62.3% and 54.4% and 53.4% (compound 3.16 µM); 51.3% and 41.3% and 39.7% (compound 10 µM). In addition, the IC50 (curve of compound) was > 10 µM and 3.64 µM and 4.13 µM.

In the case of `CCc1cc2c(N3CCc4c(cc(Cn5ccnc5)cc4-c4cn(C)nc4C(F)(F)F)C3=O)ccnc2c(OC)n1`, the viability, T/C runs as follows: (compound 0.0316 µM) 93.8% and 107% and 110%; (compound 0.1 µM) 106% and 93.5% and 101%; (compound 0.316 µM) 111% and 89.7% and 94.4%; (compound 1 µM) 107% and 75.4% and 60.1%; (compound 3.16 µM) 79.1% and 52.8% and 53.1%; (compound 10 µM) 49.8% and 47.7% and 43.4%. In addition, the IC50 (curve of compound) was > 10 µM and 6.52 µM and 2.81 µM.

As for `COc1cc2cc(C(=O)CCC(=O)O)sc2cc1OC`, the viability, T/C is 99% and 105% and 100% (compound 0.0316 µM); 97.3% and 102% and 92.3% (compound 0.1 µM); 109% and 107% and 92.4% (compound 0.316 µM); 95.5% and 105% and 98% (compound 1 µM); 105% and 104% and 93.1% (compound 3.16 µM); 99.8% and 105% and 109% (compound 10 µM). Further, where the note is “curve of compound”, the IC50 was more than 10 µM.

For the compound `O=C(Nc1ccc(O)c(NS(=O)(=O)c2ccc(F)cc2)c1)c1ccc(-c2ccccc2)cc1`, the viability, T/C is, setting by setting: (compound 0.0316 µM) 104% and 110% and 106%; (compound 0.1 µM) 107% and 100% and 90.8%; (compound 0.316 µM) 107% and 108% and 104%; (compound 1 µM) 108% and 92.6% and 100%; (compound 3.16 µM) 102% and 106% and 114%; (compound 10 µM) 60.7% and 49.2% and 101%. The IC50 (curve of compound) was > 10 µM and 9.86 µM.

Regarding `CCCS(=O)(=O)Nc1ccc(F)c(C(=O)c2c[nH]c3ncc(-c4ccc(Cl)cc4)cc23)c1F` + COC1C(OC(N)=O)C(O)C(Oc2ccc3c(O)c(NC(=O)c4ccc(O)c(CC=C(C)C)c4)c(=O)oc3c2C)OC1(C)C, the half-maximal inhibitory concentration (IC50) runs as follows: (curve of first compound, second compound 0.0316 µM) 6.22 µM; (curve of first compound, second compound 0.1 µM) 5.9 µM; (curve of first compound, second compound 0.316 µM) 5.7 µM; (curve of first compound, second compound 1 µM) 5.66 µM; (curve of first compound, second compound 3.16 µM) 6.01 µM; (curve of first compound, second compound 10 µM) 5.82 µM. Besides, the viability, T/C by setting is: (second compound 0.0316 µM, first compound 0.0316 µM) 99.9%; (second compound 0.0316 µM, first compound 0.1 µM) 99.7%; (second compound 0.0316 µM, first compound 0.316 µM) 100%; (second compound 0.0316 µM, first compound 1 µM) 108%; (second compound 0.0316 µM, first compound 3.16 µM) 97.1%; (second compound 0.0316 µM, first compound 10 µM) 16.8%. The viability, T/C runs as follows: (second compound 0.1 µM, first compound 0.0316 µM) 98.2%; (second compound 0.1 µM, first compound 0.1 µM) 116%; (second compound 0.1 µM, first compound 0.316 µM) 102%; (second compound 0.1 µM, first compound 1 µM) 107%; (second compound 0.1 µM, first compound 3.16 µM) 91.1%; (second compound 0.1 µM, first compound 10 µM) 15.2%. For the same compound, the viability, T/C (second compound 0.316 µM, first compound 0.0316 µM) is 109%; the viability, T/C (second compound 0.316 µM, first compound 0.1 µM) is 113%; the viability, T/C (second compound 0.316 µM, first compound 0.316 µM) was 95.8%; the viability, T/C (second compound 0.316 µM, first compound 1 µM) is 99.7%; the viability, T/C (second compound 0.316 µM, first compound 3.16 µM) is 83.8%; the viability, T/C (second compound 0.316 µM, first compound 10 µM) is 18.9%. Moreover, the viability, T/C is 113% (second compound 1 µM, first compound 0.0316 µM); 103% (second compound 1 µM, first compound 0.1 µM); 96.7% (second compound 1 µM, first compound 0.316 µM); 105% (second compound 1 µM, first compound 1 µM); 86.4% (second compound 1 µM, first compound 3.16 µM); 14.1% (second compound 1 µM, first compound 10 µM). Also, the viability, T/C reads like this: (second compound 3.16 µM, first compound 0.0316 µM) 96.6%; (second compound 3.16 µM, first compound 0.1 µM) 99.7%; (second compound 3.16 µM, first compound 0.316 µM) 98.1%; (second compound 3.16 µM, first compound 1 µM) 107%; (second compound 3.16 µM, first compound 3.16 µM) 91.3%; (second compound 3.16 µM, first compound 10 µM) 16.9%. The viability, T/C by setting is: (second compound 10 µM, first compound 0.0316 µM) 106%; (second compound 10 µM, first compound 0.1 µM) 97.8%; (second compound 10 µM, first compound 0.316 µM) 104%; (second compound 10 µM, first compound 1 µM) 93%; (second compound 10 µM, first compound 3.16 µM) 89.9%; (second compound 10 µM, first compound 10 µM) 15.8%.
